Legend:
[1] = target: T1, pig kidney fucokinase (Sus scrofa, UniProt I3LTC2); experiment: Specificity of fucokinase for phosphate donor (nucleotides); assay type: biochemical; conditions: nucleotide added at 1 mM as phosphate donor
T1 construct: L-Fucokinase was purified to apparent homogeneity from the cytosolic fraction of pig kidney; from tissue; host or cells: pig kidney, cytosolic fraction
T1 sequence (I3LTC2 1-1083): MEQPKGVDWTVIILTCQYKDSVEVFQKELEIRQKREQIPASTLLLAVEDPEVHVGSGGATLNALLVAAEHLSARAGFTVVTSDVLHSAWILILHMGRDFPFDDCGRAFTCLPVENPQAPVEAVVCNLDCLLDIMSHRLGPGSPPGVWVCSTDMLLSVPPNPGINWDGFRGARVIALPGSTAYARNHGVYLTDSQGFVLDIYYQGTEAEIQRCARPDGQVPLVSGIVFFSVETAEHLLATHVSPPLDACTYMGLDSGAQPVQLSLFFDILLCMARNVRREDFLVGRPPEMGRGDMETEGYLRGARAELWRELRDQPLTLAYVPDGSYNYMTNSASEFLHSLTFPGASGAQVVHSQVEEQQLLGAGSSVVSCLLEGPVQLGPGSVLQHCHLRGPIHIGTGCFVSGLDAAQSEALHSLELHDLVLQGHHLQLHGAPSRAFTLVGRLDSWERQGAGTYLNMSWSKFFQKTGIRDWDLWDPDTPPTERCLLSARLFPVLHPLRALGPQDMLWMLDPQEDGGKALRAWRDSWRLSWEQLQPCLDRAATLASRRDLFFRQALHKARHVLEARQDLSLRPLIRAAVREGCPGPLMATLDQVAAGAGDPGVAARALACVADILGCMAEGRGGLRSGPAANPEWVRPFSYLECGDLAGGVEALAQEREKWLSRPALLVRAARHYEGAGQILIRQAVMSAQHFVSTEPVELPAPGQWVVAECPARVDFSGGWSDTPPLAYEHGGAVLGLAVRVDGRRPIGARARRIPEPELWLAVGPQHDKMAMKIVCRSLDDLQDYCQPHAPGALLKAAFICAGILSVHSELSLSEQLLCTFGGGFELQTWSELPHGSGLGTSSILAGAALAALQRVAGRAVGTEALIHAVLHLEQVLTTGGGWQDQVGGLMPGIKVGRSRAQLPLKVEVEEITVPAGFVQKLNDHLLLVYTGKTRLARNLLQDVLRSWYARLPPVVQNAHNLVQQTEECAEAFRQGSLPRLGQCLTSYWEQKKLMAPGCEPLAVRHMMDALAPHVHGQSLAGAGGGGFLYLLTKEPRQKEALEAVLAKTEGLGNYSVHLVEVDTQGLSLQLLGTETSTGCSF
Experimental: (§1) Fucokinase activity was assayed by measuring the production of L-fucose-1-Pfrom [^3 H]L-fucose and ATP. The incubation mixtures contained the following components (final concentrations) in a total volume of 150 μl: L-fucose, 0.1 mM; ATP, 5 mM; MgSO4, 5 mM; Tris-HCl buffer, pH 8.0, 65 mM; and various amounts of enzyme at the different stages of purification. Incubations were at 37° C. for 10 minutes, and reactions were terminated by heating the reaction mixtures in a boiling water bath for 1 minute. The incubation mixtures were then applied to a column of DE-52 contained in a Pasteur pipette, and the column was washed with at least 5 column volumes of 10 mM (NH4)HCO3 to remove the unbound material. The [^3 H]fucose-1-P was then eluted with 500 mM (NH4)HCO3. Aliquots of the eluates were assayed for their radioactive content by subjecting a portion to scintillation counting.
The specificity of the nucleoside triphosphate was also examined by testing the ability of a variety of nucleotides to serve as phosphate donors in the phosphorylation of [^3 H]L-fucose. […] In addition, no activity is observed with any nucleoside diphosphates or monophosphates.

[2] = target: T2, pig kidney fucokinase (110 kDa band) (Sus scrofa, UniProt I3LTC2); experiment: Photoaffinity labeling of the fucokinase with 8-azido-ATP[32P]; assay type: binding; conditions: unlabeled ATP 0.3-1.2 mM; GTP, ITP 0.6 and 1.2 mM
T2 construct: L-Fucokinase was purified to apparent homogeneity from the cytosolic fraction of pig kidney; from tissue; host or cells: pig kidney, cytosolic fraction
T2 sequence (I3LTC2 1-1083): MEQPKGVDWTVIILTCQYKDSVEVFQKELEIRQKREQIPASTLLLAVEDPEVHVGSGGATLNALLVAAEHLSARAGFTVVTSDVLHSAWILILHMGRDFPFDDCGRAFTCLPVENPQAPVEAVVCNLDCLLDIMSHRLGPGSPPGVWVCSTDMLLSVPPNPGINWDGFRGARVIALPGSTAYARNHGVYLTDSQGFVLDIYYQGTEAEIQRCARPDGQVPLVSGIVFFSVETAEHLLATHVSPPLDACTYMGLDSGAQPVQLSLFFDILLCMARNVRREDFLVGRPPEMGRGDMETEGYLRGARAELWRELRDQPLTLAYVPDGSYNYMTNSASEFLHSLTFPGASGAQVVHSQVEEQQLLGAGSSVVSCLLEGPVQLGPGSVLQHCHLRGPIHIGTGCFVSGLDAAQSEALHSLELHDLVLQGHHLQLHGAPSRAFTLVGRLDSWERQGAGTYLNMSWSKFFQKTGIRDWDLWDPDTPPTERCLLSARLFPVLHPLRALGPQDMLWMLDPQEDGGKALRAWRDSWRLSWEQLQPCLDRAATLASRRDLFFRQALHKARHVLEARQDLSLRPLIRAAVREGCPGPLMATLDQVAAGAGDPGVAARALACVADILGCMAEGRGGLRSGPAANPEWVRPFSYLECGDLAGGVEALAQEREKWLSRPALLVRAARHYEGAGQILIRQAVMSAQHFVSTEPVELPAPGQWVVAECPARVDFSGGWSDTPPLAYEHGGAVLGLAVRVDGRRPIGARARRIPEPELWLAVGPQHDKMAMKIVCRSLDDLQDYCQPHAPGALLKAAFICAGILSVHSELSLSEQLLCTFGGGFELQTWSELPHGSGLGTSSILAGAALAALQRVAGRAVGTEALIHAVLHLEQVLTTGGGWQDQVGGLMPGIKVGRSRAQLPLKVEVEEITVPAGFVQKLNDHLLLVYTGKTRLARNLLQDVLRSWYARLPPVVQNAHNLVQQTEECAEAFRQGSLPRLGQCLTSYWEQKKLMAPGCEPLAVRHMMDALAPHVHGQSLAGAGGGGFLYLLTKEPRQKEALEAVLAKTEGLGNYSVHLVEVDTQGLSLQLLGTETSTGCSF
Experimental: The purified enzyme was incubated for 20 seconds with azido-ATP[^32 P], and the mixture was exposed to UV for 90 seconds. The reaction was stopped by adding loading buffer and the mixture subjected to SDS-PAGE. Radioactive bands were detected by exposure to film. Lanes are as follows: Lane 1, Probe+enzyme, but no UV; Lane 2, Probe+enzyme+UV; Lanes 3 through 6. Probe+enzyme+0.3, 0.6, 0.9, and 1.2 mM ATP+exposure to UV light; lanes 7 and 8, 0.6 and 1.2 mM GTP+probe+exposure to UV light: lanes 9 and 10, 0.6 and 1.2 mM ITP+probe+exposure to UV light. In lanes 11 and 12, the enzyme was incubated with N3 -GTP[^32 P ] and then exposed to UV light (lane 12) or not exposed to UV light (lane 11). Lane 13 is a control of enzyme+N3 -ATP[^32 P]+exposure to UV light.
Enzyme, at various stages of purity, was mixed with 8-azido-ATP[^32 P] in buffer, and allowed to incubate for 20 sec. in an ice bath. 8-Azido-ATP[^32 P] was prepared as previously described (16). After incubation, the reaction mixture was exposed to short wave UV light for about 90 sec. to activate the azido group, and the protein was subjected to SDS gel electrophoresis to separate the proteins. The gels were dried and exposed to film to locate the radioactive bands and were also stained with Coomassie blue to locate the various proteins. The specificity of the labeling was determined by examining the effect of various concentrations of unlabeled ATP or other nucleotides on the labeling of the protein by N3 -ATP[^32 P]. Various controls were also run, such as one in which exposure to UV was omitted.
Lanes 11-13 of FIG. 3 show the results of another experiment designed to determine whether 8-N3 -GTP[^32 P] could label the fucokinase. […] These experiments indicate that the fucokinase is quite specific for ATP.

[3] = tested on: pig liver L-fucokinase preparation; conditions: cited from earlier work
[4] = target: T1, pig kidney fucokinase; experiment: Sugar specificity of purified fucokinase (radiolabeled sugars as phosphate acceptors); assay type: biochemical; conditions: for activity as phosphate acceptor (in words): purified enzyme; for Specific Activity: radiolabeled sugar 100 μM as phosphate acceptor
Experimental: as §1
The specificity of the kinase for various sugar substrates was examined in two different ways. In the first set of experiments, various radiolabeled sugars were tested as phosphate acceptors for the purified enzyme using the ion-exchange chromatography method for assay of activity. […] D-Arabinose, which has the same configuration at carbons 1 through 4 as L-fucose, was also a reasonable substrate for phosphorylation, and was about 10% as effective as L-fucose. On the other hand, all of the other sugars were ineffective as phosphate acceptors.

[5] = tested on: pig liver L-fucokinase preparation; conditions: cited from earlier work; remark: listed apart in the source
[6] = target: T1, pig kidney fucokinase; experiment: Inhibition of [3H]L-fucose phosphorylation by unlabeled monosaccharides; assay type: biochemical; conditions: unlabeled monosaccharide 500 μM; radiolabeled L-fucose substrate 100 μM
Experimental: as §1
Although it was possible to get a reasonable assessment of the sugar specificity of the kinase from the above experiment, it was not possible to test sugars such as D-fucose, since these sugars are not available in radioactive form. Thus, these unlabeled sugars were tested for their ability to inhibit the phosphorylation of [^3 H]L-fucose. The rationale for this experiment is that a sugar that inhibits the phosphorylation of L-fucose would probably compete with L-fucose for the phosphorylation (i.e., active) site.

[7] = target: T1, pig kidney fucokinase; experiment: Inhibition of fucokinase by GDP-L-fucose and other GDP-linked sugars; assay type: biochemical
Experimental: as §1
It can be seen that the amount of inhibition of fucokinase increased with increasing amounts of GDP-L-fucose, and the Ki for GDP-L-fucose was estimated to be about 10 μM.

In the case of Nc1nc2c(ncn2[C@@H]2O[C@H](COP(=O)(O)OP(=O)(O)OP(=O)(O)O)[C@@H](O)[C@H]2O)c(=O)[nH]1 [GTP], the “Specific Activity” value [1] is listed as 0.09 nmoles/mg protein/10 min, the “inhibition of labeling of the 110 kDa band by N3-ATP[32P] (in words)” value [2] is listed as “considerably less effective in inhibiting” and the “use as phosphate donor (in words)” value [3] is listed as “could also use”.

For O=C[C@H](O)[C@@H](O)[C@@H](O)[C@H](O)CO [D-galactose], the “activity as phosphate acceptor (in words)” value [4] is listed as “does not phosphorylate”, the “Specific Activity” value [4] is listed as 0 nmole/mg protein and the “rate of phosphorylation compared with L-fucose (in words)” value [5] is listed as “about the same rate or better”. For the same molecule, the “Relative Activity (%)” value [6] was 100%.

In the case of O=C[C@H](O)[C@@H](O)[C@H](O)[C@H](O)CO [D-glucose], the “activity as phosphate acceptor (in words)” value [4] is given as “does not phosphorylate”, the “Specific Activity” value [4] is given as 0.3 nmole/mg protein and the “rate of phosphorylation compared with L-fucose (in words)” value [5] is given as “about the same rate or better”. For the same molecule, the “Relative Activity (%)” value [6] was 100% and the “phosphorylation of sugar by the about 70-fold purified preparation (in words)” value [3] was “considerable activity for phosphorylating”.

For Nc1nc2c(ncn2[C@@H]2O[C@H](COP(=O)(O)OP(=O)(O)OC3O[C@H](CO)[C@@H](O)[C@H](O)[C@H]3O)[C@@H](O)[C@H]2O)c(=O)[nH]1 (stereo partly drawn) [GDP-D-glucose], the “inhibition of the fucokinase (in words)” value [7] was “did not inhibit”.

In the case of O=c1[nH]cnc2c1ncn2[C@@H]1O[C@H](COP(=O)(O)OP(=O)(O)OP(=O)(O)O)[C@@H](O)[C@H]1O [ITP], the “Specific Activity” value [1] is reported as 0.10 nmoles/mg protein/10 min and the “inhibition of labeling of the 110 kDa band by N3-ATP[32P] (in words)” value [2] is reported as “considerably less effective in inhibiting”.
